What all share (assay type): cell-based
In test [1] the target is Ba/F3 HER2-YVMA cells (HER2-A775_G776insYVMA) (Homo sapiens, UniProt P04626, DUP772-775, cells depend on it). Nature of the test: Cell proliferation assay (CellTiter-Glo), Ba/F3 HER2-YVMA. The note with it: read-out: Ba/F3 HER2-YVMA cell proliferation IC50. The method, then:
The gene encoding HER2-A775_G776insYVMA (“HER2-YVMA”) was synthesized at GeneRay, cloned into the retroviral construct pMSCV-puro (Biovector), and packaged into retroviral particles. The virus was used to infect Ba/F3 cells (RIKEN) at multiplicity of infection=1 or 10 for 1 day. Infected cells were rescued in media (RPMI-1640 with 10% fetal bovine serum and 1% streptomycin and penicillin) supplemented with mouse IL-3 (10 ng/mL) for 2 days, and stable cell lines were selected by IL-3 withdrawal and puromycin (0.8 μg/mL) for 7 days. Monoclones were selected by single-cell dilution in IL-3-free medium containing puromycin ([…]). Transformation of desired genes was confirmed by Sanger sequencing and western blot using the following antibody: HER2 (CST #2242).
Ba/F3 cells were plated at 1,000 cells/well (40 μL), or NCI-H1781 or A431 cells were plated at 2,000 cells/well (40 μL), in a 384-well plate for 1 day. Test compounds (40 nL) were then added in a 3-fold dilution series using the TECAN EV0200 liquid handler and incubated for 48 hours (“2 days”), 72 hours (“3 days”), or 48 hours followed by renewal of compound solutions and further incubation for 72 hours (“2 days/3 days”). The 72-hour assay was necessary for NCI-H1781 cells, which are slow-growing, and the resupply of fresh compounds on day 3 obviated the potential confounding effects arising from compound degradation in cell media over 72 hours. Plates were equilibrated at room temperature for 15 minutes followed by addition of 40 μL CellTiter-Glo reagent (Promega). Luminescence was measured on a plate reader. Half-maximal inhibitory concentration (IC50) was calculated from percent inhibition and inhibitor concentration using four-parameter logistic regression. […] In these cases, the regression curve was drawn only for the first inflexion to accurately measure on-target growth inhibitory effect.
Ba/F3, NCI-H1781, and A431 proliferation is driven by the oncogenes in the same way that cancer cell proliferation in humans is driven by the expression of equivalent oncogenes.
In general terms: Cellular ATP, detected with luciferase, serves as a proxy for viable cell number.

The test system of test [2] is A431 cells (amplification of the wild-type EGFR gene), phospho-ERK Thr202/Tyr204. Nature of the test: Cellular phosphorylation assay, pERK (phospho-ERK Thr202/Tyr204 AlphaLISA) in A431. The note with it: Homo sapiens, A-431, compound incubated for 5 hours. On the procedure:
(§1) Besides Ba/F3s, two commercially available cell lines were also used. NCI-H1781 is a HER2 exon20 insertion cell line bearing HER2-A775_G776insV-G776C. A431 bears amplification of the wild-type EGFR gene.
(§2) Ba/F3 cells were plated at 50,000 cells/well (40 μL), or NCI-H1781 cells or A431 cells were plated at 12,500 cells/well (40 μL), in a 384-well plate for 1 day. Test compounds (40 nL) were then added in a 3-fold dilution series using the TECAN EV0200 liquid handler and incubated for 5 hours. Only for pEGFR analysis in A431, the cells were briefly stimulated with EGF (30 ng/mL) for 15 minutes. Media were removed using Apricot Designs. Phosphoproteins were analyzed using the phospho-EGFR Tyr1068 AlphaLISA kit (“pEGFR”; PerkinElmer #ALSU-PEGFR-B10K;) phospho-ERK Thr202/Tyr204 AlphaLISA kit (“pERK”; PerkinElmer #ALSU-PERK-A10K) or the phospho-ErbB2 Tyr1221/1222 AlphaLISA kit (“pHER2”; PerkinElmer #ALSU-PEB2-A10K;) according to the manufacturer's instructions. Briefly, cells were lysed with lysis buffer (10 μL) containing protease-inhibitor and phosphatase-inhibitor cocktails. The lysates were transferred into a new optical plate, incubated with the acceptor mix (5 μL) for 1.5-2 hours at room temperature in darkness, and then mixed with the donor mix (5 μL) overnight in darkness. Fluorescence was measured on a plate reader using the appropriate AlphaLISA settings. Half-maximal inhibitory concentration (IC50) was calculated from percent inhibition and inhibitor concentration using four-parameter logistic regression. […]

The target in test [3] is T1, wild-type EGFR (A431 cells) (Homo sapiens, UniProt P00533).
T1 construct: A431 bears amplification of the wild-type EGFR gene; endogenous in cells; host or cells: A431
T1 sequence (P00533 25-1210): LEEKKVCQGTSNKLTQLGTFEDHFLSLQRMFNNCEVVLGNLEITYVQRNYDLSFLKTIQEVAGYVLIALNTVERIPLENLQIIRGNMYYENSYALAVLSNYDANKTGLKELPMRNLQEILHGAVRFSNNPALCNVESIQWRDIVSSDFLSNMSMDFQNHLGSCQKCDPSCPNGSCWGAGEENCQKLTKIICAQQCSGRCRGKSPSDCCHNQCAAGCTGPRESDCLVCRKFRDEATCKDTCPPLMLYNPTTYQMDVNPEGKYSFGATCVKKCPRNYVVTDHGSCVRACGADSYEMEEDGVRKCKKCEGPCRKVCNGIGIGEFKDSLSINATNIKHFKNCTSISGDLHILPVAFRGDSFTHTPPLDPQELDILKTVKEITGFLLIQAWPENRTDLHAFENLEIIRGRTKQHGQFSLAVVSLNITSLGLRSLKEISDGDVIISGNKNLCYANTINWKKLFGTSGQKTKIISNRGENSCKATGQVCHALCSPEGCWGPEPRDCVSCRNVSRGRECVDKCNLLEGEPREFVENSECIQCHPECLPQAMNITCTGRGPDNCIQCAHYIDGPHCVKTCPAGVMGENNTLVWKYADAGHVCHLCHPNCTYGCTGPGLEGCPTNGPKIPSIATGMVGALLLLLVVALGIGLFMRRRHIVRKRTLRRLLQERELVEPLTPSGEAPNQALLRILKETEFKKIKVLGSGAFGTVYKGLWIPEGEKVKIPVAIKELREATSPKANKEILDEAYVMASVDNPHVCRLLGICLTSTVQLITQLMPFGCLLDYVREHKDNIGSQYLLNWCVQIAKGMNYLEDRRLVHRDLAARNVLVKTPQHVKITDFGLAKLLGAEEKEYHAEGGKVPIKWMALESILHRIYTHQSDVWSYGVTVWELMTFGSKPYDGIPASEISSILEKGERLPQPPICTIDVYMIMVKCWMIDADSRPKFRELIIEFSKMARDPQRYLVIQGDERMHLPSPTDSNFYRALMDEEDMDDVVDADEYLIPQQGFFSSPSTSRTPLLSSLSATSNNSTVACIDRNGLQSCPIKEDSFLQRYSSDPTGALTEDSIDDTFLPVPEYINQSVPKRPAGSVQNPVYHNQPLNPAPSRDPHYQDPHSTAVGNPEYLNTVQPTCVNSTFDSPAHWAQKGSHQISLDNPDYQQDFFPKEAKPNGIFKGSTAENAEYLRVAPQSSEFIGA
Kind of test: Cellular phosphorylation assay, pEGFR (phospho-EGFR Tyr1068 AlphaLISA) in A431. The note with it: compound incubated for 5 hours, EGF (30 ng/mL) for 15 minutes. On the procedure: as §1, §2

By IC50 is commonly meant the point on the concentration scale where inhibition reaches its midpoint.

Bounds are passed on as bounds.

Chain of Ba/F3 HER2-YVMA cells (HER2-A775_G776insYVMA) (P04626 with tags, fused parts or gaps DUP772-775): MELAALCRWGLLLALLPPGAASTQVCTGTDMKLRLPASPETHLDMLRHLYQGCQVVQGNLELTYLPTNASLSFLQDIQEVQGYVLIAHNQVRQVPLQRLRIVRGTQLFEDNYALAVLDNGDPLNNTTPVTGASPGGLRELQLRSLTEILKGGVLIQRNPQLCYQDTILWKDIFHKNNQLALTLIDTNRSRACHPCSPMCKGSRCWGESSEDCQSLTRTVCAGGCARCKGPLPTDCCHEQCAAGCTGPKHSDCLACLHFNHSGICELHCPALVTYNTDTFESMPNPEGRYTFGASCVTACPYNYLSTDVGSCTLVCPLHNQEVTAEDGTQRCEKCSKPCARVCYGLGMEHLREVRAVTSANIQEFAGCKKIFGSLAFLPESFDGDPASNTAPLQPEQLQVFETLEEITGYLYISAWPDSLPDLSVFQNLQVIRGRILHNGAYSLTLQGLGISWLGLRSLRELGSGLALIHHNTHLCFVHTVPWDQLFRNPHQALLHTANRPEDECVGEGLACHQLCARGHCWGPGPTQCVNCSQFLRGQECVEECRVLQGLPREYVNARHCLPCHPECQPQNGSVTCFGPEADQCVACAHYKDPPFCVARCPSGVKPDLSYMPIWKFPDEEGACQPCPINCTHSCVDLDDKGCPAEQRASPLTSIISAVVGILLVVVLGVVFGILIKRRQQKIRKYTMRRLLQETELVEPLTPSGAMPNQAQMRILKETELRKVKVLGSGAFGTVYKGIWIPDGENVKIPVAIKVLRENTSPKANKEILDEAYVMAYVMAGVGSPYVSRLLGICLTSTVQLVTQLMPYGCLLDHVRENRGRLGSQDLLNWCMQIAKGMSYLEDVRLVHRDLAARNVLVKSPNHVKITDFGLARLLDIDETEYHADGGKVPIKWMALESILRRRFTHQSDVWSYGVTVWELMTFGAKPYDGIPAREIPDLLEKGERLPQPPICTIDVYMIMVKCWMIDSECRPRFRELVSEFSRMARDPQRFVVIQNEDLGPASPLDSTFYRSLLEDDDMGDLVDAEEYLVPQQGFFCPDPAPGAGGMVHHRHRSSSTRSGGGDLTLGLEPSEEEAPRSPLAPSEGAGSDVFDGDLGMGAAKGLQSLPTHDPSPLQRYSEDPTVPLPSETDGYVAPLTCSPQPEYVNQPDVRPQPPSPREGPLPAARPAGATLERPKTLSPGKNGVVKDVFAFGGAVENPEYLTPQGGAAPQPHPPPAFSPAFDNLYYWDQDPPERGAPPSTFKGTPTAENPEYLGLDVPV

With `C=CC(=O)N1CC=C(c2ccc3ncnc(Nc4ccc(Oc5ccc6ocnc6c5)c(C)c4)c3n2)CC1` [Example 10], the GI50 in test [1] is below 100 nM. The IC50 was 100 to 500 nM in test [2] and below 100 nM in test [3].

Regarding `C=C(F)C(=O)N1CCN(c2ccc3ncnc(Nc4ccc(Oc5ccn6ncnc6c5)c(C)c4)c3n2)CC1` [Example 24], the GI50 in test [1] was in the range of 500 to 1000 nM. Moreover, in test [3], the IC50 is at least 1000 nM.

For the molecule `Cc1cc(Nc2ncnc3ccc(C4=CCN(C(=O)/C=C/C5CCCN5C)CC4)nc23)ccc1Oc1ccn2ncnc2c1` (stereo not drawn) [Example 25], the GI50 in test [1] was 100 to 500 nM. In addition, the IC50 in test [2] and in test [3] was at least 1000 nM throughout.

With `C=CC(=O)N1CCC=C(c2ccc3ncnc(Nc4ccc(Oc5ccn6ncnc6c5)c(C)c4)c3n2)C1` [Example 27], in test [1], the GI50 fell in the range of 100 to 500 nM. Besides, the IC50 in test [2] and in test [3] was at least 1000 nM in each case.

For the molecule `C=CC(=O)N1CCC(c2ccc3ncnc(Nc4ccc(Oc5ccn6ncnc6c5)c(C)c4)c3n2)C(C)C1` (stereo not drawn) [Example 28], the GI50 in test [1] was in the range of 100 to 500 nM. Moreover, the IC50 in test [2] and in test [3] was at least 1000 nM throughout.

In the case of `C=CC(=O)N1CC=C(c2ccc3ncnc(Nc4ccc(Oc5ccn6ncnc6c5)c(C)c4)c3c2F)CC1` [Example 30], the GI50 in test [1] fell in the range of 100 to 500 nM. In test [3], this molecule showed an IC50 of at least 1000 nM.

As to `C=CC(=O)N1CC(c2ccc3ncnc(Nc4ccc(Oc5ccn6ncnc6c5)c(C)c4)c3n2)C1` [Example 33], the GI50 in test [1] was 100 to 500 nM. Further, the IC50 in test [2] and in test [3] was at least 1000 nM each time.

`C=CC(=O)N1C[C@@H]2CN(c3ncc4ncnc(Nc5ccc(Oc6ccn7ncnc7c6)c(C)c5F)c4n3)C[C@@H]2C1` [Example 46]: in test [1], the GI50 lay in the range of 100 to 500 nM. Also, the IC50 in test [3] is at least 1000 nM.

With `C=CC(=O)N1CCC2(C1)CN(c1ncc3ncnc(Nc4ccc(Oc5ccn6ncnc6c5)c(C)c4F)c3n1)C2` [Example 47], the GI50 in test [1] was 100 to 500 nM. The IC50 in test [3] is at least 1000 nM.

For the molecule `C=CC(=O)N1CCC2(CCN(c3ncc4ncnc(Nc5ccc(Oc6ccn7ncnc7c6)c(C)c5F)c4n3)C2)C1` (stereo not drawn) [Example 48], in test [1], the GI50 fell in the range of 100 to 500 nM. Besides, the IC50 in test [3] is at least 1000 nM.

With `C=CC(=O)N1CC=C(c2ncc3ncnc(Nc4ccc(Oc5ccn6ncnc6c5)c(C)c4F)c3n2)CCC1` [Example 57], the GI50 in test [1] was below 100 nM. The molecule further gave an IC50 in test [3] of 100 to 500 nM.

In the case of `C=CC(=O)N1CCC(c2ncc3ncnc(Nc4cc(C)c(Oc5ccn6ncnc6c5)cc4F)c3n2)=C[C@@H]1C` [Example 58], in test [1], the GI50 was below 100 nM. The IC50 in test [2] and in test [3] was at least 1000 nM in each case.

`C=CC(=O)N1CC=C(c2ncc3ncnc(Nc4ccc(Oc5ccn6ncnc6c5)c(C(F)F)c4F)c3n2)C[C@@H]1C` [Example 61]: the GI50 in test [1] lay within 100 to 500 nM. In addition, the IC50 in test [2] is at least 1000 nM.

Take `C=CC(=O)N1CCN(c2ncc3ncnc(Nc4ccc(Oc5ccn6ncnc6n5)c(C)c4F)c3n2)C[C@H]1C` [Example 65]: the GI50 in test [1] fell in the range of 100 to 500 nM. Also, the IC50 in test [2] and in test [3] was at least 1000 nM in each case.

With `C=CC(=O)N1CC=C(c2nc3c(Nc4ccc(Oc5ccn6ncnc6c5)c(C)c4)ncnc3cc2OC)CC1` [Example 66], the GI50 in test [1] is below 100 nM. This molecule also displayed an IC50 in test [3] of 100 to 500 nM.

As for `C=CC(=O)N1CCN(c2ncc3ncnc(Nc4ccc(Oc5ccc6c(c5)ncn6C)cc4F)c3n2)CC1` [Example 67], the GI50 in test [1] is below 100 nM. Also, the IC50 was 500 to 1000 nM in test [2] and at least 1000 nM in test [3].

Turning to `C=CC(=O)N1CCN(c2ncc3ncnc(Nc4ccc(Oc5ccc6c(c5)ncn6C)c(C)c4F)c3n2)C[C@H]1C` [Example 68], in test [1], the GI50 is below 100 nM. The figures for the IC50 in test [2] and in test [3] were 100 to 500 nM and 500 to 1000 nM, respectively.

As to `Cc1c(Oc2ccn3ncnc3c2)ccc(Nc2ncnc3cnc(C4=CCN(C(=O)/C=C/CN(C)C)CC4)nc23)c1F` [Example 69], in test [1], the GI50 was below 100 nM. For the same molecule, the IC50 in test [2] was 100 to 500 nM; in test [3], 500 to 1000 nM.

On to `C=CC(=O)N1CC=C(c2ccc3ncnc(Nc4ccc(Oc5ccn6ccnc6c5)c(C)c4)c3n2)CC1` [Example 70], for which the GI50 in test [1] is below 100 nM. Besides, the IC50 in test [2] and in test [3] was 100 to 500 nM each time.

Turning to `C=CC(=O)N1CC=C(c2ccc3ncnc(Nc4ccc(Oc5ccc6ccn(C)c6c5)c(C)c4)c3n2)CC1` [Example 71], the GI50 in test [1] lay in the range of 100 to 500 nM. Further, the IC50 in test [2] and in test [3] was 100 to 500 nM throughout.

Turning to `C=CC(=O)N1CC=C(c2ccc3ncnc(Nc4ccc(Oc5ccn6nccc6c5)c(C)c4)c3n2)CC1` [Example 72], the GI50 in test [1] is below 100 nM. Also, the values for the half-maximal inhibitory concentration (IC50) in test [2] and in test [3] were 100 to 500 nM and below 100 nM, respectively.

`C=CC(=O)N1CCN(c2ncc3ncnc(Nc4ccc(Oc5cc6ncnn6cn5)c(C)c4F)c3n2)C[C@H]1C` [Example 73]: in test [1], the GI50 is below 100 nM. For the same molecule, the IC50 in test [2] and in test [3] was 100 to 500 nM throughout.

For `C=CC(=O)N1CCN(c2ncc3ncnc(Nc4ccc(Oc5ccc6c(c5)ncn6C)c(C)c4F)c3n2)CC1` [Example 74], the GI50 in test [1] was below 100 nM. In addition, the results for the IC50 in test [2] and in test [3] were below 100 nM and 100 to 500 nM, respectively.

As to `C=CC(=O)N1CCN(c2ccc3ncnc(Nc4ccc(Oc5ccn6c(C)cnc6c5)c(C)c4F)c3c2F)C[C@H]1C` [Example 75], the GI50 in test [1] is below 100 nM. The half-inhibitory concentration (IC50) in test [2] is 100 to 500 nM; in test [3], 500 to 1000 nM.

With `C=CC(=O)N1CCN(c2ncc3ncnc(Nc4cc(C)c(Oc5ccn6ncnc6c5)cc4F)c3n2)CC1(C)C` [Example 76], in test [1], the GI50 is 100 to 500 nM. The same molecule showed an IC50 in test [3] of at least 1000 nM.

In the case of `C=CC(=O)N1CCN(c2ncc3ncnc(Nc4ccc(Oc5ccn6ncnc6c5)c(C)c4F)c3n2)CC1(C)C` [Example 77], the GI50 in test [1] is below 100 nM. Moreover, in test [3], the IC50 is 100 to 500 nM.

Regarding `C=CC(=O)N1CC=C(c2ncc3ncnc(Nc4ccc(Oc5ccn6ncnc6c5)c(C)c4F)c3n2)C[C@H]1C` [Example 80], the GI50 in test [1] was below 100 nM. Also, the IC50 in test [2] is 500 to 1000 nM; in test [3], at least 1000 nM.

As to `C=CC(=O)N1CCN(c2ncc3ncnc(Nc4ccc(Oc5ccn6ncnc6c5)c(C)c4F)c3n2)C[C@H]1CF` [Example 81], the GI50 in test [1] is below 100 nM. Moreover, the IC50 in test [2] and in test [3] was 100 to 500 nM each time.

On to `C=CC(=O)N1C(C)CN(c2ccc3ncnc(Nc4ccc(Oc5ccn6ncnc6c5)c(C)c4)c3n2)CC1C` (stereo not drawn) [Example 92], for which the GI50 in test [1] is below 100 nM. In test [3], the IC50 is at least 1000 nM.

Regarding `C=CC(=O)N1CCN(c2ccc3ncnc(Nc4ccc(Oc5ccn6ncnc6c5)c(C)c4F)c3c2F)CC1` [Example 93], the GI50 in test [1] was below 100 nM. This molecule came in with an IC50 in test [3] of at least 1000 nM.

In the case of `C=CC(=O)N1CC=C(c2ncc3ncnc(Nc4ccc(Oc5cc(C)n6ncnc6c5)c(C)c4F)c3n2)C[C@@H]1C` [Example 97], the GI50 in test [1] is below 100 nM. The molecule also had an IC50 in test [2] of 500 to 1000 nM.

Consider `C=CC(=O)N1CCN(c2ncc3ncnc(Nc4ccc(Oc5ccn6ncnc6c5)c(C)c4F)c3n2)CC1` [Example 98], for which the GI50 in test [1] was below 100 nM. The molecule also came in with an IC50 in test [3] of 500 to 1000 nM.

For `C=CC(=O)N1CCN(c2ncc3ncnc(Nc4ccc(Oc5ccn6ncnc6c5)c(C)c4F)c3n2)C[C@H]1C(F)F` [Example 99], in test [1], the GI50 is below 100 nM. In test [3], this molecule had a concentration for half-maximal inhibition (IC50) below 100 nM.

The record behind these values is patent US12037346B2, “Amino-substituted heteroaryls for treating cancers with EGFR mutations” (Nuvalent, Inc., priority 2021, dated 2024).
